# Experimental data published in PubChem BioAssay AID1413 (The Scripps Research Institute Molecular Screening Center, 2008).
# Activity calls are given as the source filed them.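 The calls were made as follows: active = CC50, the dose killing half the cells, at or below 10 µM, by curve fit or manual estimate; inactive = CC50 above 10 µM.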
# Tested on: HeLa viability, CellTiter-Glo ATP luminescence
# Test: HeLa cell cytotoxicity, dose response, cytotoxicity control for Wee1 degradation inhibitor project, CellTiter-Glo luminescence (AID 1413)
row,SMILES,CC50
1,CCCC1=Nc2cc(C(=O)NCc3ccco3)ccc2Sc2ccccc21,> 49.8 µM (inactive)
2,O=C1C=CC(O)(c2cc(=O)c3c(O)cc(O)cc3o2)C=C1,> 49.8 µM (inactive)
3,CCN(CC)c1ccc(/C=N/NC(=O)c2ccco2)cc1,> 49.8 µM (inactive)
4,O=[N+]([O-])c1ccc(Sc2cccc[n+]2[O-])c2nonc12,6.76 µM
5,O=C(N=Nc1c(O)[nH]c2ccc(Br)cc12)c1ccccc1-n1cccc1,> 49.8 µM (inactive)
6,COC(=O)C1CCN(C(=O)/C=C/c2ccc(OC)cc2)CC1,> 49.8 µM (inactive)
7,COc1cccc(C2=CC(c3cccc(OC)c3OC)n3nnnc3N2)c1 (stereo not drawn),> 49.8 µM (inactive)
8,COc1ccc(NC(=O)/C(Cl)=C(/Cl)S(=O)Cc2ccc(C)cc2)cn1 (stereo not drawn),14.5 µM (inactive)
9,COc1cc(C2=NOC(C(=O)NCc3cccs3)C2)cc(OC)c1OC (stereo not drawn),> 49.8 µM (inactive)
10,CCOC(=O)N1CCN(C(=O)c2cc(-c3ccc(OCC)cc3)nc3ccccc23)CC1,> 49.8 µM (inactive)
11,O=C(/C=C/c1cccnc1)/C=C/c1cccnc1,> 49.8 µM (inactive)
12,Cc1ccc(/C=N/NC(=O)c2ccc3c(c2)OCCO3)s1,> 49.8 µM (inactive)
13,CCOC(=O)C1=C(c2ccccc2)O/C(=C(/C#N)C(F)(F)F)S1,7.17 µM
14,CCN(CC)S(=O)(=O)c1ccc(C(=O)NCCc2ccccn2)cc1,> 49.8 µM (inactive)
15,O=S(=O)(C/C(=C/CO)S(=O)(=O)c1ccccc1)c1ccccc1,> 49.8 µM (inactive)
16,COc1ccc(/C=N/NC(=O)c2ccc3ccccc3c2)cc1OS(=O)(=O)c1ccc(NC(C)=O)cc1,> 49.8 µM (inactive)
17,O=c1[nH]c2ccccc2nc1/C=C(\O)c1cccs1,> 49.8 µM (inactive)
18,On1onc2c3cc(-c4ccccc4)nc3ccc21,> 49.8 µM (inactive)
19,COc1ccc(NC(=O)/C(Cl)=C(/Cl)S(=O)Cc2ccccc2)cn1 (stereo not drawn),> 16.6 µM (inactive)

row,SMILES,CC50
1,CCCCS(=O)(=O)/C=C\C=C/S(=O)(=O)CCCC,> 16.6 µM (inactive)
2,O=C(/C=C/c1ccccc1)Nc1ccc(Cl)cn1,> 49.8 µM (inactive)
3,Cc1ccc2nc(NCc3ccccc3)[nH]c2c1,> 49.8 µM (inactive)
4,O=C(Nc1ccc(Cl)c(Cl)c1)Nc1nccs1,> 49.8 µM (inactive)
5,Cc1nc2ccccn2c1-c1csc(Nc2cccc(O)c2)n1,> 49.8 µM (inactive)
6,Cc1cc(Cl)ccc1NC(=S)Nc1ccccn1,> 49.8 µM (inactive)
7,CC(=O)Nc1ccc(/C=N/Nc2nc3ccccc3s2)cc1,> 49.8 µM (inactive)
8,Cc1cccn2c1nc(=S)n2C(=O)c1ccco1,> 49.8 µM (inactive)
9,Cn1cccc1/C=C1\SC(=Nc2ccccc2)NC1=O,> 49.8 µM (inactive)
10,Cc1ccc(Nc2cc(C)nn2-c2nc(C)cc(=O)[nH]2)cc1,> 49.8 µM (inactive)
11,O=C(COc1ccc(C(=O)c2ccc(F)cc2)cc1)NCc1ccc(F)cc1,> 49.8 µM (inactive)
12,C=CS(=O)(=O)c1ccc(Oc2ccc(S(=O)(=O)C=C)cc2)cc1,> 49.8 µM (inactive)
13,COc1cccc(/C=N/NC(=O)c2cc3c(OC)c(OC)ccc3[nH]2)c1OC,> 49.8 µM (inactive)
14,COc1ccccc1-c1ccc(SCc2ccccc2F)nn1,> 49.8 µM (inactive)
15,CCN(CC)c1ccc(/C=N/NC(=O)c2cnccn2)cc1,> 49.8 µM (inactive)
16,Cc1ccnc(NC(=O)CCCOc2cc(=O)n(C)c3ccccc23)c1,> 49.8 µM (inactive)
17,COc1ccc(Nc2oc(-c3ccc(OC)cc3)nc2C#N)cc1,> 49.8 µM (inactive)
18,Cc1csc2sc(-c3ccnc(SCC(=O)NCc4ccccc4)n3)c(C)c12,> 49.8 µM (inactive)
19,CCOc1cccc(N(C(=O)Cc2cccs2)C(C(=O)NC2CCCCC2)c2cccn2C)c1 (stereo not drawn),> 49.8 µM (inactive)
